Reference: patent publication US6737383B1, “Herbicidal oxadiazolidines” (priority 1999, dated 2004)

What was measured:
pigweed = assay: Test B pre/postemergence pigweed; format: in vivo, Amaranthus retroflexus
In short: (§1)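 Herbicidal effect was estimated by eye on a ten-point control scale after plants spent twelve to sixteen days in a greenhouse following soil or foliar treatment. Foliar sprays targeted plants at one to four leaves; all doses were formulated in a non-phytotoxic solvent with surfactant.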

wild oat = assay: Test B pre/postemergence wild oat; format: in vivo, Avena fatua
In short: as §1

rape = assay: Test B pre/postemergence rape; format: in vivo, Brassica napus
In short: as §1

crabgrass = assay: Test B pre/postemergence crabgrass; format: in vivo, Digitaria sanguinalis
In short: as §1

giant foxtail = assay: Test B pre/postemergence giant foxtail; format: in vivo, Setaria faberii
In short: as §1

corn = assay: Test B pre/postemergence corn; format: in vivo, Zea mays
In short: as §1

bedstraw = assay: Test B pre/postemergence bedstraw; format: in vivo, Galium aparine
In short: as §1

rice = assay: Test B flood test rice; format: in vivo, Oryza sativa; conditions: Pre-emergence
In short: (§2)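 Plants were grown to the 2-leaf stage before treatment with test chemical, then held in a greenhouse for twelve to sixteen days. Injury was visually rated against untreated controls on a 0–10 scale, where 0 is no effect and 10 is complete control.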

velvetleaf = assay: Test B pre/postemergence velvetleaf; format: in vivo, Abutilon theophrasti
In short: as §1

purple nutsedge = assay: Test B pre/postemergence purple nutsedge; format: in vivo, Cyperus rotundus
In short: as §1

smallflower flatsedge = assay: Test B flood test smallflower flatsedge; format: in vivo, Cyperus difformis; conditions: Pre-emergence
In short: as §2

morningglory = assay: Test B pre/postemergence morningglory; format: in vivo, Ipomoea hederacea
In short: as §1

wheat = assay: Test B pre/postemergence wheat; format: in vivo, Triticum aestivum
In short: as §1

soybean = assay: Test B pre/postemergence soybean; format: in vivo, Glycine max
In short: as §1

duck salad = assay: Test B flood test duck salad; format: in vivo, Heteranthera limosa; conditions: Pre-emergence
In short: as §2

cocklebur = assay: Test B pre/postemergence cocklebur; format: in vivo, Xanthium strumarium
In short: as §1

[1] = Preemergence, Rate 62 g/ha, scale of 0 to 10 where 0 is no effect and 10 is complete control
[2] = Preemergence, Rate 250 g/ha, scale of 0 to 10 where 0 is no effect and 10 is complete control
[3] = Preemergence, Rate 500 g/ha, scale of 0 to 10 where 0 is no effect and 10 is complete control
[4] = Rate 62 g/ha, Postemergence, scale 0 to 10 (0 no effect, 10 complete control)
[5] = Rate 125 g/ha, Postemergence, scale of 0 to 10 where 0 is no effect and 10 is complete control
[6] = Rate 250 g/ha, Postemergence, scale of 0 to 10 where 0 is no effect and 10 is complete control
[7] = Rate 500 g/ha, Postemergence, scale 0 to 10, 0 no effect, 10 complete control
[8] = Rate 1000 g/ha, scale 0 to 10 (0 no effect, 10 complete control)
[9] = Rate 125 g/ha, flood test species, scale 0 to 10 where 0 is no effect and 10 is complete control
[10] = Rate 250 g/ha, flood-test species, scale 0 to 10, 0 is no effect, 10 is complete control
[11] = Rate 500 g/ha, flood test species, scale 0 to 10 (0 no effect, 10 complete control)

CCN(C(=O)n1oc(=O)n(C(C)C)c1=O)C1CCCCC1 [Compound 309]
0: Redroot pigweed plant response rating (pigweed; [1]) | Redroot pigweed plant response rating (0 to 10 scale) (pigweed; Preemergence, Rate 125 g/ha) | Redroot pigweed plant response rating (pigweed; [2]) | Redroot pigweed plant response rating (pigweed; [4]) | Redroot pigweed plant response rating (pigweed; [5]) | Plant response rating, Redroot pigweed (pigweed; [6]) | Wild oats plant response rating (wild oat; [1]) | Wild oats plant response rating (0 to 10 scale) (wild oat; Preemergence, Rate 125 g/ha) | Wild oats plant response rating (wild oat; [2]) | Wild oats plant response rating (wild oat; [4]) | Wild oats plant response rating (wild oat; [5]) | Plant response rating, Wild oats (wild oat; [6]) | Rape plant response rating (rape; [1]) | Rape plant response rating (0 to 10 scale) (rape; Preemergence, Rate 125 g/ha) | Rape plant response rating (rape; [2]) | Rape plant response rating (rape; [3]) | Rape plant response rating (rape; [4]) | Rape plant response rating (rape; [5]) | Plant response rating, Rape (rape; [6]) | Crabgrass plant response rating (crabgrass; [1]) | Crabgrass plant response rating (crabgrass; [4]) | Crabgrass plant response rating (crabgrass; [5]) | Plant response rating, Crabgrass (crabgrass; [6]) | Giant foxtail plant response rating (giant foxtail; [4]) | Giant foxtail plant response rating (giant foxtail; [5]) | Plant response rating, Giant foxtail (giant foxtail; [6]) | Corn plant response rating (corn; [1]) | Corn plant response rating (0 to 10 scale) (corn; Preemergence, Rate 125 g/ha) | Corn plant response rating (corn; [4]) | Corn plant response rating (corn; [5]) | Plant response rating, Corn (corn; [6]) | Corn plant response rating (corn; [7]) | Bedstraw plant response rating (bedstraw; [1]) | Bedstraw plant response rating (0 to 10 scale) (bedstraw; Preemergence, Rate 125 g/ha) | Bedstraw plant response rating (bedstraw; [2]) | Bedstraw plant response rating (bedstraw; [3]) | Bedstraw plant response rating (bedstraw; [4]) | Bedstraw plant response rating (bedstraw; [5]) | Plant response rating, Bedstraw (bedstraw; [6]) | Bedstraw plant response rating (bedstraw; [7]) | Rice plant response rating (rice; [8]) | Rice plant response rating (rice; [9]) | Rice plant response rating (rice; [10]) | Rice plant response rating (rice; [11]) | Velvetleaf plant response rating (velvetleaf; [1]) | Velvetleaf plant response rating (0 to 10 scale) (velvetleaf; Preemergence, Rate 125 g/ha) | Velvetleaf plant response rating (velvetleaf; [2]) | Velvetleaf plant response rating (velvetleaf; [4]) | Velvetleaf plant response rating (velvetleaf; [5]) | Plant response rating, Velvetleaf (velvetleaf; [6]) | Nutsedge plant response rating (purple nutsedge; [1]) | Nutsedge plant response rating (0 to 10 scale) (purple nutsedge; Preemergence, Rate 125 g/ha) | Nutsedge plant response rating (purple nutsedge; [2]) | Nutsedge plant response rating (purple nutsedge; [3]) | Nutsedge plant response rating (purple nutsedge; [4]) | Nutsedge plant response rating (purple nutsedge; [5]) | Plant response rating, Nutsedge (purple nutsedge; [6]) | S. Flatsedge plant response rating (smallflower flatsedge; [8]) | S. Flatsedge plant response rating (smallflower flatsedge; [9]) | S. Flatsedge plant response rating (smallflower flatsedge; [10]) | S. Flatsedge plant response rating (smallflower flatsedge; [11]) | Morningglory plant response rating (morningglory; [1]) | Morningglory plant response rating (0 to 10 scale) (morningglory; Preemergence, Rate 125 g/ha) | Morningglory plant response rating (morningglory; [2]) | Morningglory plant response rating (morningglory; [3]) | Wheat plant response rating (wheat; [1]) | Wheat plant response rating (0 to 10 scale) (wheat; Preemergence, Rate 125 g/ha) | Wheat plant response rating (wheat; [2]) | Wheat plant response rating (wheat; [3]) | Wheat plant response rating (wheat; [4]) | Wheat plant response rating (wheat; [5]) | Plant response rating, Wheat (wheat; [6]) | Soybean plant response rating (soybean; [1]) | Soybean plant response rating (0 to 10 scale) (soybean; Preemergence, Rate 125 g/ha) | Soybean plant response rating (soybean; [2]) | Soybean plant response rating (soybean; [3]) | Ducksalad plant response rating (duck salad; [8]) | Ducksalad plant response rating (duck salad; [9]) | Ducksalad plant response rating (duck salad; [10]) | Ducksalad plant response rating (duck salad; [11]) | Cocklebur plant response rating (cocklebur; [1]) | Cocklebur plant response rating (0 to 10 scale) (cocklebur; Preemergence, Rate 125 g/ha) | Cocklebur plant response rating (cocklebur; [2]) | Cocklebur plant response rating (cocklebur; [3]) | Cocklebur plant response rating (cocklebur; [4]) | Cocklebur plant response rating (cocklebur; [5]) | Plant response rating, Cocklebur (cocklebur; [6]) | Cocklebur plant response rating (cocklebur; [7])
9: Giant foxtail plant response rating (0 to 10 scale) (giant foxtail; Preemergence, Rate 125 g/ha) | Giant foxtail plant response rating (giant foxtail; [2]) | Giant foxtail plant response rating (giant foxtail; [3])
5: Giant foxtail plant response rating (giant foxtail; [1])
2: Redroot pigweed plant response rating (pigweed; [3]) | Wild oats plant response rating (wild oat; [3]) | Crabgrass plant response rating (crabgrass; [2]) | Corn plant response rating (corn; [2]) | Velvetleaf plant response rating (velvetleaf; [3]) | Plant response rating, Morningglory (morningglory; [6]) | Soybean plant response rating (soybean; [4]) | Soybean plant response rating (soybean; [5]) | Plant response rating, Soybean (soybean; [6])
4: Corn plant response rating (corn; [3])
6: Crabgrass plant response rating (crabgrass; [3])
1: Crabgrass plant response rating (0 to 10 scale) (crabgrass; Preemergence, Rate 125 g/ha) | Morningglory plant response rating (morningglory; [4]) | Morningglory plant response rating (morningglory; [5])
